Experimental data published in patent US11312706B2, “Cyclohexyl acid pyrazole azines as LPA antagonists” (BRISTOL-MYERS SQUIBB COMPANY, priority 2017, dated 2022).

Molecular target: T1, human LPA1 (Homo sapiens, UniProt Q92633)
T1 construct: expressed in transfected cells; host or cells: Chinese hamster ovary (CHO) cells
Assay: LPA1 functional antagonist assay (LPA-induced calcium flux)
Assay type: cell-based
Details: CHO cells overexpressing human LPA1, 10 nM LPA, read-out: hLPA1 IC50
Description: The effectiveness of compounds of the present invention as LPA1 inhibitors can be determined in an LPA1 functional antagonist assay as follows:
Chinese hamster ovary cells overexpressing human LPA1 were plated overnight (15,000 cells/well) in poly-D-lysine coated 384-well microplates (Greiner bio-one, Cat #781946) in DMEM/F12 medium (Gibco, Cat #11039). Following overnight culture, cells were loaded with calcium indicator dye (AAT Bioquest Inc, Cat #34601) for 30 minutes at 37° C. The cells were then equilibrated to room temperature for 30 minutes before the assay. Test compounds solubilized in DMSO were transferred to 384 well non-binding surface plates (Corning, Cat #3575) using the Labcyte Echo acoustic dispense and diluted with assay buffer [1×HBSS with calcium/magnesium (Gibco Cat #14025-092), 20 mM HEPES (Gibco Cat #15630-080) and 0.1% fatty acid free BSA (Sigma Cat #A9205)] to a final concentration of 0.5% DMSO. Diluted compounds were added to the cells by FDSS6000 (Hamamatsu) at final concentrations ranging from 0.08 nM to 5 μM. and were then incubated for 20 min at room temperature at which time LPA (Avanti Polar Lipids Cat #857130C) was added at final concentrations of 10 nM to stimulate the cells. The compound IC50 value was defined as the concentration of test compound which inhibited 50% of the calcium flux induced by LPA alone. IC50 values were determined by fitting data to a 4-parameter logistic equation (GraphPad Prism, San Diego Calif.).

T1 sequence (Q92633 whole entry): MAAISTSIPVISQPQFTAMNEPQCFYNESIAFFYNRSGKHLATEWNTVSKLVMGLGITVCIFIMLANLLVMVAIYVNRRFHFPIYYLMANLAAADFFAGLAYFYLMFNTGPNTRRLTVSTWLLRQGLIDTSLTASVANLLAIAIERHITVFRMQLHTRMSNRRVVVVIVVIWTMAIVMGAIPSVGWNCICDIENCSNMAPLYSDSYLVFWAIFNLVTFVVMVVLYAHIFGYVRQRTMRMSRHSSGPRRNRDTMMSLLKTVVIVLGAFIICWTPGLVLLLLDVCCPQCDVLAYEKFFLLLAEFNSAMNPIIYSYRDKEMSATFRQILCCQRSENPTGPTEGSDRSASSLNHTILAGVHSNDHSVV

| Compound | IC50 [nM] |
| --- | --- |
| CCc1nc(-c2cnn(C)c2CNc2nccc(OC3CC3)n2)ncc1O[C@H]1CCC[C@H](C(=O)O)C1 [Example 22, (1S,3S)-3-((2-(5-(((4-cyclopropoxy-pyrimidin-2-yl)amino)methyl)-1-methyl-1H-pyrazol-4-yl)-4-ethylpyrimidin-5-yl)oxy)cyclohexane-1-carboxylic acid] | 7 |
| CCc1nc(-c2cnn(C)c2CNc2nccc(OCC(C)(F)F)n2)ncc1O[C@H]1CCC[C@H](C(=O)O)C1 [Example 26] | 15 |
| Cc1nc(-c2cnn(C)c2CNc2nccc(OC3CC(F)(F)C3)n2)ncc1O[C@H]1CCC[C@H](C(=O)O)C1 [Example 31, (1S,3S)-3-((2-(5-(((4-(3,3-difluorocyclobutoxy)pyrimidin-2-yl)amino)methyl)-1-methyl-1H-pyrazol-4-yl)-4-methylpyrimidin-5-yl)oxy)cyclohexane-1-carboxylic acid] | 122 |
| Cc1nc(-c2cnn(C)c2CNc2ccnc(OC3CC(F)(F)C3)n2)ncc1O[C@H]1CCC[C@H](C(=O)O)C1 [Example 32, (1S,3S)-3-((2-(5-(((2-(3,3-difluorocyclobutoxy)pyrimidin-4-yl)amino)methyl)-1-methyl-1H-pyrazol-4-yl)-4-methylpyrimidin-5-yl)oxy)cyclohexane-1-carboxylic acid] | 619 |
| CCc1ccnc(NCc2c(-c3ncc(O[C@H]4CCC[C@H](C(=O)O)C4)c(C)n3)cnn2C)n1 [Example 35, (1S,3S)-3-((2-(5-(((4-ethylpyrimidin-2-yl)amino)methyl)-1-methyl-1H-pyrazol-4-yl)-4-methylpyrimidin-5-yl)oxy)cyclohexane-1-carboxylic acid] | 207 |
| COCCCOc1ccnc(NCc2c(-c3ncc(O[C@H]4CCC[C@H](C(=O)O)C4)c(C)n3)cnn2C)n1 [Example 36, (1S,3S)-3-((2-(5-(((4-(3-methoxypropoxy)pyrimidin-2-yl)amino)methyl)-1-methyl-1H-pyrazol-4-yl)-4-methylpyrimidin-5-yl)oxy)cyclohexane-1-carboxylic acid] | 27 |
| CCCNc1nc(NCc2c(-c3ncc(O[C@H]4CCC[C@H](C(=O)O)C4)c(C)n3)cnn2C)ncc1F [Example 37, (1S,3S)-3-((2-(5-(((5-fluoro-4-(propylamino)pyrimidin-2-yl)amino)methyl)-1-methyl-1H-pyrazol-4-yl)-4-methylpyrimidin-5-yl)oxy)cyclohexane-1-carboxylic acid] | 13 |
| Cc1nc(-c2cnn(C)c2CNc2nccc(OCC(F)F)n2)ncc1O[C@H]1CCC[C@H](C(=O)O)C1 [Example 40, (1S,3S)-3-((2-(5-(((4-(2,2-difluoroethoxy)pyrimidin-2-yl)amino)methyl)-1-methyl-1H-pyrazol-4-yl)-4-methylpyrimidin-5-yl)oxy)cyclohexane-1-carboxylic acid] | 2.7 |
| Cc1nc(-c2cnn(C)c2CNc2nccc(OCCCF)n2)ncc1O[C@H]1CCC[C@H](C(=O)O)C1 [Example 41, (1S,3S)-3-((2-(5-(((4-(3-fluoropropoxy)pyrimidin-2-yl)amino)methyl)-1-methyl-1H-pyrazol-4-yl)-4-methylpyrimidin-5-yl)oxy)cyclohexane-1-carboxylic acid] | 7.1 |
| Cn1ncc(-c2ccc(O[C@H]3CCC[C@H](C(=O)O)C3)cn2)c1Nc1cccc(-c2cccc(F)c2)n1 [Example 42, (1S,3S)-3-{[6-(5-{[6-(3-fluorophenyl)pyridin-2-yl]amino}-1-methyl-1H-pyrazol-4-yl)pyridin-3-yl]oxy}cyclohexane-1-carboxylic acid] | 137 |
| (1S,3S)-3-((2-(5-(((4-(2-fluoro-phenyl)pyrimidin-2-yl)amino) methyl)-1-methyl-1H-1,2,3-triazol-4-yl)-4-methylpyrimidin-5-yl)oxy)cyclohexanecarboxylic acid [Example 14] | 22 |

The next lines start with the values.

| IC50 [nM] | Compound |
| --- | --- |
| 350 | CCc1nc(-c2cnn(C)c2CNc2nccc(OC)n2)ncc1O[C@H]1CCC[C@H](C(=O)O)C1 [Example 24, (1S,3S)-3-((4-ethyl-2-(5-(((4-methoxypyrimidin-2-yl)amino)methyl)-1-methyl-1H-pyrazol-4-yl)pyrimidin-5-yl)oxy)cyclohexane-1-carboxylic acid] |
| 151 | CCOc1ccnc(N(C)Cc2c(-c3ncc(O[C@H]4CCC[C@H](C(=O)O)C4)cn3)cnn2C)n1 [Example 29] |
| 78 | COCCOc1ccnc(NCc2c(-c3ncc(O[C@H]4CCC[C@H](C(=O)O)C4)c(C)n3)cnn2C)n1 [Example 34, (1S,3S)-3-((2-(5-(((4-(2-methoxyethoxy)pyrimidin-2-yl)amino)methyl)-1-methyl-lH-pyrazol-4-yl)-4-methylpyrimidin-5-yl)oxy)cyclohexane-1-carboxylic acid] |
| 61 | CCc1nc(-c2cnn(C)c2CNc2nccc(OCCOC)n2)ncc1O[C@H]1CCC[C@H](C(=O)O)C1 [Example 27, (1S,3S)-3-((4-ethyl-2-(5-(((4-(2-methoxyethoxy)pyrimidin-2-yl)amino)methyl)-1-methyl-1H-pyrazol-4-yl)pyrimidin-5-yl)oxy)cyclohexane-1-carboxylic acid] |
| 41 | CCNc1nc(NCc2c(-c3ncc(O[C@H]4CCC[C@H](C(=O)O)C4)c(C)n3)cnn2C)ncc1F [Example 38, (1S,3S)-3-((2-(5-(((4-(ethylamino)-5-fluoropyrimidin-2-yl)amino)methyl)-1-methyl-1H-pyrazol-4-yl)-4-methylpyrimidin-5-yl)oxy)cyclohexane-1-carboxylic acid] |
| 28 | Cc1nc(-c2cnn(C)c2CNc2ncnc(C(C)C)n2)ncc1O[C@H]1CCC[C@H](C(=O)O)C1 [Example 43, (1S,3S)-3-((2-(5-(((4-isopropyl-1,3,5-triazin-2-yl)amino)methyl)-1-methyl-1H-pyrazol-4-yl)-4-methylpyrimidin-5-yl)oxy)cyclohexane-1-carboxylic acid] |
| 23 | CCOc1ccnc(NCc2c(-c3ncc(O[C@H]4CCC[C@H](C(=O)O)C4)cn3)cnn2C)n1 [Example 28, (1S,3S)-3-((2-(5-(((4-ethoxypyrimidin-2-yl)amino)methyl)-1-methyl-1H-pyrazol-4-yl)pyrimidin-5-yl)oxy)cyclohexane-1-carboxylic acid] |
| 21 | Cc1nc(-c2cnn(C)c2CNc2nccc(OCC(C)F)n2)ncc1O[C@H]1CCC[C@H](C(=O)O)C1 (stereo partly drawn) [Example 33, (1S,3S)-3-((2-(5-(((4-(2-fluoropropoxy)pyrimidin-2-yl)amino)methyl)-1-methyl-1H-pyrazol-4-yl)-4-methylpyrimidin-5-yl)oxy)cyclohexane-1-carboxylic acid] |
| 18 | CCc1nc(-c2cnn(C)c2CNc2nccc(OCCCF)n2)ncc1O[C@H]1CCC[C@H](C(=O)O)C1 [Example 25, (1S,3S)-3-((4-ethyl-2-(5-(((4-(3-fluoropropoxy)pyrimidin-2-yl)amino)methyl)-1-methyl-1H-pyrazol-4-yl)pyrimidin-5-yl)oxy)cyclohexane-1-carboxylic acid] |
| 6.2 | Cc1nc(-c2cnn(C)c2CNc2nccc(OCC(F)(F)C(F)F)n2)ncc1O[C@H]1CCC[C@H](C(=O)O)C1 [Example 39, (1S,3S)-3((4-methyl-2-(1-methyl-5-(((4-(2,2,3,3-tetrafluoropropoxy)pyrimidin-2-yl)amino)methyl)-1H-pyrazol-4-yl)pyrimidin-5-yl)oxy)cyclohexane-1-carboxylic acid] |
| 5 | CCOc1ccnc(NCc2c(-c3ncc(O[C@H]4CCC[C@H](C(=O)O)C4)c(CC)n3)cnn2C)n1 [Example 21, (1S,3S)-3-((2-(5-(((4-ethoxypyrimidin-2-yl)amino)methyl)-1-methyl-1H-pyrazol-4-yl)-4-ethylpyrimidin-5-yl)oxy)cyclohexane-1-carboxylicacid] |
| 2 | CCCOc1ccnc(NCc2c(-c3ncc(O[C@H]4CCC[C@H](C(=O)O)C4)c(CC)n3)cnn2C)n1 [Example 23, (1S,3S)-3-((4-ethyl-2-(1-methyl-5-(((4-propoxypyrimidin-2-yl)amino)methyl)-1H-pyrazol-4-yl)pyrimidin-5-yl)oxy) cyclohexane-1-carboxylic acid] |

Test system: IPF patients
Assay: not given
Details: 26 weeks; cited from earlier work

| Compound | rate of FVC (forced vital capacity) decline |
| --- | --- |
| Cc1noc(-c2ccc(-c3ccc(C4(C(=O)O)CC4)cc3)cc2)c1NC(=O)O[C@H](C)c1ccccc1 [BMS-986020] | significantly reduce the rate of FVC (forced vital capacity) decline |

Test system: nerve-injured mice
Assay: not given
Details: pretreatment; cited from earlier work

| Compound | allodynia and hyperalgesia |
| --- | --- |
| C[C@@H](N)[C@H]1CC[C@H](C(=O)Nc2ccncc2)CC1 [Example Y-27632] | completely abolished |
